Assay results: paper PMC10938758, “A phenotypic screen of the Global Health Priority Box identifies an insecticide with anthelmintic activity” (Parasites & Vectors, 2024)

Legend:
C. elegans young adults = experiment: C. elegans dose-response assay, motility; parameters: species or system Caenorhabditis elegans
Description: The dose–response assay for C. elegans followed a well-established protocol and was employed to evaluate the potency of hit compounds against this nematode. Test and positive-control compounds as well as negative controls were prepared in 96-well microplates (cf.). One hundred C. elegans in 50 μl of LB* were added to each well to give a final volume of 100 μl. Plates were then placed in an incubator at 20 °C for 40 h. At 40 h, worm activity was captured using a WMicroTracker ONE unit. Raw activity counts for each well were normalised to the negative controls. The compound concentrations were log10-transformed and fitted using a variable-slope four-parameter equation, using the ordinary least squares fit model, employing GraphPad Prism (v.9.1.0). A one-way ANOVA with a Tukey multiple comparison test or an unpaired t-test was used to establish statistically significant differences in larval motility.

[1] = tested on: exsheathed third-stage larvae (xL3s) of Haemonchus contortus; experiment: Primary screen, H. contortus larval development and phenotype (microscopy); conditions: 20 µM, 168 h
Description: An established high-throughput phenotypic screening assay was used to test the anthelmintic activity of compounds on H. contortus xL3s. Compounds were assessed for motility inhibition at a concentration of 20 µM in LB*. […] A solution of LB* + 1% (v/v) DMSO was used as a negative control. Test compounds were distributed amongst one flat-bottom, 384-well microplate (cat no. 3860; Corning, Corning, NY, USA). Eighty xL3s of H. contortus in 20 µl of LB* were added to each well to give a final volume of 40 µl. The plate was then placed in a CO2 incubator (10% [v/v] CO2, 38 °C, > 90% humidity). At 90 h, worm activity was captured using a WMicroTracker ONE unit (Phylumtech, Sunchales, Santa Fe, Argentina). Over a period of 15 min, disturbance of an infrared beam in individual wells was recorded as a worm ‘activity count’. Activity counts were then normalised to the positive and negative controls using the GraphPad Prism program (v.9.1.0 GraphPad Software, San Diego, CA, USA). The screening plate was then returned to the incubator (10% [v/v] CO2, 38 °C, > 90% humidity) for an additional 72 h. At 168 h, worms were fixed with 40 µl of Lugol solution (Sigma-Aldrich, St. Louis, MO, USA). Compounds were then assessed (microscopically) for inhibition of larval development and/or induction of a non-wild-type phenotype in H. contortus worms. […] The performance of the assay was monitored using the Z′-factor [58] calculated using data for the negative (DMSO) and positive (M-666) control compounds on individual plates.

[2] = tested on: acetylcholine esterase (AChE); conditions: in vitro and in vivo; direct or indirect effect not confirmed; cited from earlier work
H. contortus larvae = experiment: H. contortus dose-response assay, larval development; parameters: species or system Haemonchus contortus; conditions: Haemonchus contortus, 168 h, read-out: IC50, inhibition of H. contortus larval development
Description: The dose–response assay for H. contortus followed a well-established protocol; it was employed to evaluate the potency of hit compounds against this nematode. Test compounds were assessed individually for an effect on the motility of xL3s (10-point, twofold serial dilution in LB*, 40–0.16 μM). One compound, monepantel (prepared in the same manner as the test compounds), was used as a positive control. A solution of LB* was used as a negative control. The test and positive-control compounds were arrayed in triplicate across individual flat-bottom 96-well microplates, with six wells on each plate containing the negative control. Three hundred xL3s of H. contortus in 50 μl of LB* were added to each well to give a final volume of 100 μl. Plates were then placed in a CO2 incubator (10% [v/v] CO2, 38 °C, > 90% humidity). After 168 h of incubation, worm activity was captured using a WMicroTracker ONE unit. Over a period of 15 min, disturbance of an infrared beam in individual wells was recorded as a worm activity count. Raw activity counts for each well were normalised to the negative controls. The compound concentrations were log10-transformed and fitted using a variable-slope four-parameter equation, using the ordinary least squares fit model, employing GraphPad Prism (v.9.1.0). Larval development was established at 168 h of incubation with compound, as described previously. The development inhibition and phenotypes of larvae were examined microscopically. A one-way analysis of variance (ANOVA) with a Tukey multiple comparison test or an unpaired t-test was used to establish statistically significant differences in larval motility or development.

With `CC(F)c1ncnc(NCCc2ccc(OC(F)(F)F)cc2)c1Cl` (stereo not shown) [MMV1794206, flufenerim] the “Maximum motility inhibition (MMI), C. elegans” value (C. elegans young adults; 40 h of incubation) was 100%, the IC50 (C. elegans young adults; Caenorhabditis elegans, 40 h, read-out: IC50, C. elegans young adult motility, 40 h of incubation) was 220 nM and the Abnormal phenotype ([1]; H. contortus larvae) was “Cur”. For the same compound, the “Induction of an abnormal phenotype (in words)” value ([1]; H. contortus larvae) was “induced an abnormal phenotype”, the inhibition at 20 µM ([1]; Haemonchus contortus, H. contortus, read-out: Larval development inhibition, %) was 100% and the “AChE activity in whiteflies following treatment” value [2] was “decrease in acetylcholine esterase (AChE) activity”. The IC50 (H. contortus larvae) was 1200 nM.
